Earlier results as cited in patent US20240130871A1, “DRUG-COATED ENDOVASCULAR DEVICES” (UNIVERSITY OF SOUTH CAROLINA, priority 2022, published 2024).

Details: current DCB devices

delivered PTX lost to systemic circulation: > 90%
SMILES: CC(=O)O[C@H]1C(=O)[C@@]2(C)[C@H]([C@H](OC(=O)c3ccccc3)[C@]3(O)C[C@H](OC(=O)[C@H](O)[C@@H](NC(=O)c4ccccc4)c4ccccc4)C(C)=C1C3(C)C)[C@]1(OC(C)=O)CO[C@@H]1C[C@@H]2O [PTX, paclitaxel]
